According to patent US12491246B2, “Combination therapy of arms and natural killer cells” (KLEO PHARMACEUTICALS, INC., priority 2018, dated 2025):

What was measured:
[1] = tested on: non-CIML NK cells; test: NK cell fratricide assay, non-CIML control NK cells; assay type: cell-based; conditions: 2 hr
Protocol: (§1) PBMC isolation: Leukopheresis product from a donor with body mass index (BMI) between 19-25, under 50 years old, not on immuno-suppressive drugs for at least 2 weeks with an estimated PBMC cell count of >10^10 was obtained from Key Biologics (subject ID 20982200) and transported at ambient temperature. Leukopheresis bag was wiped down with 70% EtOH, a small slit was made and contents were pipetted off into tubes. Leukopak contents were diluted 1:1 with PBS without Ca++/Mg++ and 20 ml of this mixture was layered on top of 25 mL of Ficoll. Tubes were then centrifuged at 400 g for 30 minutes without brakes. PBMCs were harvested from the interface into separate tubes, and tubes were filled to 50 mL with PBS. Cells were centrifuged for 10 min at 120 g to get rid of platelets. Supernatant was poured off and cells were re-suspended in RPMI 10% FBS at a concentration of 7-10×10^6 cells/ml. Cells were cultured overnight at 37C in a 5% CO2 atmosphere until NK cell isolation.
NK cell isolation: PBMC were centrifuged at 400 g for 10 min and re-suspended in EasySep buffer. NK cells were isolated using NK cell isolation kits from STEMCELL Technologies according to kit's manufacturers' instructions. NK cell purity and phenotype was assessed by trypan Blue and flow cytometry using the following antibody cocktail: anti-CD56PE, CD3 APC, and viability was determined using staining with Trypan Blue exclusion dye, and by flow cytometry using Near Infra-Red Fixable viability dye (Thermo Fisher). […]
Purity and viability of NK cells and CIML NK cells: Among other things, the present disclosure provides highly pure and viable NK cell populations following isolation from PBMC. […] After an overnight incubation, purity and viability were assessed in the cultured cell populations. […]
(§2) NK cell fratricide (death directed at NK cells in the same culture) was assessed by flow cytometry following a 2 hr incubation with the CD38 ARM at indicated concentrations in the presence or absence of 500 μg/ml intravenous immune globulin (IVIG). […]

[2] = tested on: CD56+CD138− CIML NK cells; test: NK cell fratricide in patient bone marrow co-incubation; assay type: cell-based, human; conditions: co-incubated with patients bone marrow for 4 hrs; FIG. 4
Protocol: Patient bone marrow (3 ml) and blood (20 ml) were shipped at ambient temperature from Discovery Biosciences. Bone marrow was diluted 1:1 with PBS, and 50 μl of bone marrow-PBS mixture was aliquoted into 96 deep well plates. Bone marrow cells were incubated overnight until CIML cells were added next day.
PBMC were isolated from blood by Ficoll density gradient centrifugation. PBMC were centrifuged at 400 g for 10 min and re-suspended in EasySep buffer. NK cells were isolated using NK cell isolation kits from STEMCELL Technologies according to kit's manufacturers' instructions.
NK cells were re-suspended at 1×10^6 cells/ml in XVIVO15, 10% Human Serum, IL-15 (50 ng/ml), IL-12 (10 ng/ml), IL-18(50 ng/ml), and incubated for 18 hrs. Following overnight incubation with cytokines, NK cells were washed twice with PBS 5% Human Serum Albumin, counted and re-suspended at a cell density of 2×10^5 cells/ml of XVIVO15 media. Twenty microliters (4000 cells) were added per each well containing 50 μl of bone marrow: PBS mixture. […]
The assay was then incubated for 4 hrs. at 37° C. […] Finally, cells were re-suspended in 200 μl of FACS Buffer and analyzed using Attune Flow Cytometer. Data were analyzed using FlowJo software and graphed using GraphPad Prism. […]

[3] = tested on: CIML NK cells; test: CIML NK cell fratricide assay; assay type: cell-based
Protocol: as §1
NK cell isolation: PBMC were centrifuged at 400 g for 10 min and re-suspended in EasySep buffer. NK cells were isolated using NK cell isolation kits from STEMCELL Technologies according to kit's manufacturers' instructions. NK cell purity and phenotype was assessed by trypan Blue and flow cytometry using the following antibody cocktail: anti-CD56PE, CD3 APC, and viability was determined using staining with Trypan Blue exclusion dye, and by flow cytometry using Near Infra-Red Fixable viability dye (Thermo Fisher).
CIML NK cell generation: Isolated NK cells were re-suspended at 2×10^6 cells/ml in XVIVO 10% Human Serum and the following concentrations IL-15 (50 ng/ml), IL-12 (10 ng/ml), IL-18(50 ng/ml) for 12 to 18 hrs. […]
as §2

CCCCC[C@@H]1NC(=O)[C@H](CCCNC(=N)N)NC(=O)[C@H](C)NC(=O)CSC[C@@H](C(=O)NCCOCCOCCOCCOCCOCCOCCn2nnc3c2CCC2C(CC3)C2COC(=O)N2CCC(C(=O)NCC(=O)N[C@H](CCC(=O)N[C@H](CCC(=O)N[C@H](CCC(=O)O)C(=O)N[C@H](CCC(=O)N[C@H](CCC(=O)NCC(=O)NCC(=O)N[C@@H](CC(=O)O)C(=O)N[C@H]3CSSC[C@@H](C(=O)N[C@H](C(=O)O)[C@@H](C)O)NC(=O)[C@H](Cc4c[nH]c5ccccc45)NC(=O)[C@H](C(C)C)NC(=O)[C@H](CC(C)C)NC(=O)[C@H](CCC(=O)O)NC(=O)CNC(=O)[C@H](CC(C)C)NC(=O)[C@H](Cc4c[nH]cn4)NC(=O)[C@H](Cc4c[nH]c5ccccc45)NC(=O)[C@H](C)NC3=O)C(=O)O)C(=O)O)C(=O)O)C(=O)O)CC2)NC(=O)[C@H](CC(=O)O)NC(=O)[C@H](CCCCC)NC(=O)[C@H](Cc2ccc(-c3ccccc3)cc2)NC(=O)[C@H](CC(C)C)NC(=O)[C@H](C(C)C)NC(=O)CNC(=O)[C@H](CC(=O)O)NC(=O)[C@H](Cc2c[nH]cn2)NC(=O)[C@H](Cc2ccc(O)cc2)NC1=O (some centres unmarked) [CD38 ARM]
increase in dead NK cells ([1]; 25 uM vs DMSO control): 1.7% | increase in dead NK cells ([1]; highest concentration with IVIG vs DMSO IVIG control): 0.93% | frequencies of CD56+CD138− CIML NK cells (NK cell fratricide) [2]: did not change | increase in the percentage of dead NK cells ([3]; CIML NK cells, +/−IVIG, 2 hours post-incubation): no increase | NK cell fratricide (data normalized to DMSO treated control) ([3]; even the highest doses, FIG. 1 (B)): no apparent NK cell fratricide was detected
